This is an account of results in PMC7377361, “Pressurized DNA state inside herpes capsids—A novel antiviral target” (PLoS Pathogens, 2020).

Series [1] can be described thus: In vivo toxicity studies in mice (NIH/NIAID preclinical service). The procedure:
A control group was treated with PBS. […] No signs of distress or significant weight loss were observed during the 4 days of treatment. […]
B. In vivo toxicity studies in mice for bPEI 600 and DAB-Am-4. Experiments were conducted through NIAID/NIH preclinical service agreement No HHSN272201700017I/ […]
Procedures and Endpoints:
1- Baseline weights of all mice
2- IP treatment (twice a day, for 4 days)
3- Daily assessment of weights and condition
4- All animals sacrificed the following morning after the last evening treatment 5- Blood samples collected by IC stick for lab tests (liver, spleen and blood profiles) 6- Internal organs examined for signs of gross tissue toxicity
1. Toxicity evaluation of bPEI 600 Da in mice.
A toxicity screen was performed in uninfected mice treated with 3 doses of bPEI 600 Da, administered for 4 days. In this study, 3 doses of 5, 10 and 25 mg/kg/day were administered twice daily IP for 4 days (n=4/group). A control group was treated with the vehicle (PBS). The mice were examined daily and the weights and general condition were recorded daily. To examine liver, renal and blood function parameters, blood samples were obtained by intracardiac puncture at the end of the study (the following day after last dose) and the mice were sacrificed to examine the internal organs for signs of gross tissue toxicity.
The weights were recorded
In order to confirm the results of the lab results obtained in the toxicity study, a second group of slightly larger mice were treated with the high and the low doses of bPEI 600 Da (25 mg/kg and 5 mg/kg, n=6/group) and the vehicle control (PBS, n=4) for 4 days. Blood samples were collected at the end of the study for liver and renal chemistry profiles. The results are shown in the next […]
REN AL PBS 5 mg/kg 25 mg/kg
LIVER PBS 5 mg/kg 25 mg/kg
Al b:Gl ob R a ti o 1 1 1 […]
obtained from the second group of mice treated with bPEI 600 Da for 4 days.
No signs of distress or significant weight loss were ere observed during the […]
show significant differences with the results obtained in the PBS treated group of control mice.
Statistical analysis: Means were compared by Student’s t test, and mortality was compared by Fisher’s exact test, where applicable.
Ethics regulation of Laboratory animals: Animals were housed in facilities approved by the Association for Assessment and Accreditation of Laboratory Animal Care and Use Committee
2. Toxicity evaluation of DAB-Am-4 in mice.
A toxicity screen in uninfected mice was performed. 2 doses of 5 and 25 mg/kg/day were administered twice daily IP for 4 days (n=6/group). A control group was treated with the vehicle […]
The mice were examined daily and the weights and general condition were recorded. […]

For the next series, the system named is HSV-1. The series can be described thus: In vitro HSV-1 replication (plaque reduction) assay, EC50 and SI50 estimates. The series is classed as cell-based. Set-up: unit not given beside the values. Conditions: HFF cells infected with HSV-1.
Setting [2] is: mice, 5 mg/kg/day twice daily IP, 4 days, Mean, CBC (n=1-2).
Setting [3] is: mice, 5 mg/kg/day twice daily IP, 4 days, Mean, LIVER (n=5).
The mark [4] stands for this setting: mice, 5 mg/kg/day twice daily IP, 4 days, Mean, RENAL (n=5).

Experimental for HSV-1: In order to estimate the relevance of compound concentrations used in the SAXS analysis above for antiviral testing, we conducted cytotoxicity assays for selected compounds. […] However, as an upper boundary, the EC50 value can be set to the compound concentration used in the SAXS analysis above that is required to condense and jam DNA inside all viral capsids (or in virions), making them non-infectious. […] Concentrations of 1.3–1.8 mM for the three compounds above were used for SAXS study to condense DNA in 10^13 viral particles/mL. For the in vitro replication assay, 10^6 viral particles/mL are used as a starting concentration for EC50 value determination[48].
In parallel, for each DNA condensing compound, we determined the cytotoxicity concentration (CC50 value) using standard in vitro cellular replication assays in human foreskin fibroblast (HFF) cells (used as a standard for herpesvirus replication in vitro assays for antiviral compound tests)[48]. Cytotoxicity assays were performed on a parallel set of six-well plates containing confluent monolayers of HFF-1 cells at the same cell amount as used for antiviral plaque reduction assays for EC50 value determination, but cells were uninfected[48].
Each experiment that evaluated the antiviral activity of the compounds included both positive and negative control compounds to ensure the performance of each assay. […]

With `NCCCN(CCCN)CCCN(CCCCN(CCCN(CCCN)CCCN)CCCN(CCCN)CCCN)CCCN(CCCN)CCCN` [DAB-Am-8], the “signs of acute toxicity (lab tests)” value in series [1] (mice, 5 and 25 mg/kg/day DAB-Am-4, 5 mg/kg/day DAB-Am-8) is on record as “no conclusive signs of acute toxicity”. Further, in series [1] (mice, low dose 5 mg/kg/day), the “signs of distress during the observation period” value is given as “no significant signs”. Further, in series [1] (setting [2]), the “%Lymphocyte” value amounted to 75%, the Hematocrit is recorded as 42 and the WBC is on record as 6. In addition, in series [1] (setting [3]), the AST amounted to 437, the “Alb:Glob Ratio” value turned out to be 2, the Albumin is 3 and the Amylase is recorded as 730. Moreover, in series [1] (setting [3]), the “Bile Acids” value was 238, the Cholesterol is on record as 61, the “Creatine Kinase” value is listed as 3149 and the GGT is below 1. Moreover, in series [1] (setting [3]), the Globin was determined as 2, the “Total Protein” value was found to be 4 and the Triglyceride turned out to be 114. Besides, in series [1] (setting [4]), the BUN was 22, the “Ca:Phos Ratio” value came out at 1, the Calcium amounted to 8 and the Chloride is given as 111. In addition, in series [1] (setting [4]), the Glucose was determined as 204, the K is 7, the Na is 147 and the “Na:K Ratio” value is 22. Further, in series [1] (setting [4]), the Phosphorus came to 9 and the “Uric Acid” value is on record as 2. In addition, the toxicity entry in series [1] (mouse, in vivo, 25 mg/kg/day) is reported as “displayed toxicity”.

For `Nc1nc2c(ncn2COCCO)c(=O)[nH]1` [Acyclovir], the SI50 in the series with HSV-1 is ~ 10^2.
